Test results: US20070167527A1, “MEMANTINE FOR THE NORMALIZATION OF VISUAL ACUITY DEFICITS” (priority 2006, published 2007)

Key:
rabbits = test: Visual acuity by sweep visual evoked potential (swVEP) in conscious rabbits after transient IOP elevation; assay type: in vivo, rabbit; conditions: 4.5 months after transient IOP elevation; 2.5 kg rabbits pre-treated with oral dose of 50 mg memantine; compared with 50 mg sugar placebo (reduction in acuity)
Description: This invention is especially useful in the use of memantine to normalize visual acuity deficits from outer retina (photoreceptor/RPE) injury.
(§1) Rabbits were anesthetized with isofluorane, and prepared for unilateral acute retinal ischemia by raising IOP in the OD eye by 120 mm Hg for 45 minutes. To accomplish this, a reservoir with PBS was suspended 65 inches above the eye and connected to a 30 gauge needle inserted through the cornea into the anterior chamber. A drop of topical anesthetic (proparacaine) was placed upon the cornea prior to needle insertion.
swVEP is an electrophysiological technique for assessing visual acuity in young children who can't read the Snellen eye charts. Pattern reversal images of increasing spatial frequency are projected onto the macula while simultaneously recording electrical activity (VEP) from the scalp. Images with lower spatial frequency generate large signals which get smaller as the spatial frequency increases, until signal=noise; this threshold is the visual acuity. […]
Vertical steady-state pattern-reversal sweep stimulus at spatial frequency range of 0.1 to 5 cycles per degree at a temporal frequency of 7.5 Hz were applied to the eye at mean luminance of 600 cd/m2 and contrast of 80%. […] Trials were averaged and the threshold (visual acuity) was determined by software or manual fitting at signal-to-noise ration no less than 2.5. […]

retinal cells = test: Histology (H&E) examination of eyes after transient IOP elevation; assay type: in vivo, rabbit; conditions: compared with the placebo group (patchy loss of predominantly outer retina cells)
Description: as §1, with “This invention is especially useful in the use of memantine to normalize visual acuity deficits from outer retina (photoreceptor/RPE) injury. […] Retinal cell degeneration was less in the memantine group compared with the placebo group. Rabbits” for “Rabbits”

## CC12CC3CC(C)(C1)CC(N)(C3)C2 [memantine]
rabbits
  visual acuity: normal visual acuities
Retinal cells
  retinal cell degeneration: less
